# Test results published in ChEMBL document CHEMBL4145540 (Eur J Med Chem, 2018).
# Activity calls are given as the source filed them. No cut-off for these calls is given here.
# Experiments:
# MDA-MB-231 [1] = assay: Inhibition of EBI binding to beta-tubulin colchicine binding site in human MDA-MB-231 cells at 3 uM preincubated for 16 hrs followed by EBI addition and measured after 1.5 hrs by Western blot analysis; type: cell-based
# HEK293 = assay: Antiproliferative activity against HEK293 cells after 2 days by MTT assay; type: cell-based; settings: Homo sapiens, HEK293, 48 h
# A549 [2] = assay: Induction of apoptosis in human A549 cells after 24 hrs by Annexin V-FITC/propidium iodide staining based flow cytometry; type: functional, cell-based
# MDA-MB-231 [3] = assay: Antiproliferative activity against human MDA-MB-231 cells after 3 days by coulter counting method; type: functional, cell-based; settings: MDA-MB-231, 72 h
# A549 [4] = assay: Induction of apoptosis in human A549 cells at 10 nM after 24 hrs by Annexin V-FITC/propidium iodide staining based flow cytometry (reference value: 28%); type: functional
# HeLa = assay: Antiproliferative activity against human HeLa cells after 2 days by MTT assay; type: functional, cell-based; settings: 48 h
# HMEC-1 [5] = assay: Vascular disruptive activity in HMEC1 cells assessed as disruption of preformed tubular networks after 4 hrs by matrigel based assay; type: functional, cell-based; settings: Homo sapiens
# HT-29 = assay: Antiproliferative activity against human HT-29 cells after 2 days by MTT assay; type: functional, cell-based; settings: HT-29, 48 h
# A549 [6] = assay: Cell cycle arrest in human A549 cells assessed as accumulation at G2/M phase at 70 nM after 20 hrs by propidium iodide staining based flow cytometry (reference value: 11 +/- 1%); type: functional
# A549 [7] = assay: Cell cycle arrest in human A549 cells assessed as accumulation at S phase at 70 nM after 20 hrs by propidium iodide staining based flow cytometry (reference value: 16 +/- 1%); type: functional
# Bos taurus [8] = species on record: Bos taurus; assay: Inhibition of calf brain tubulin polymerization after 60 mins by turbidimetric method
# HL-60 = assay: Antiproliferative activity against human HL60 cells after 2 days by MTT assay; type: functional, cell-based; settings: HL-60, 48 h
# A549 [9] = assay: Antiproliferative activity against human A549 cells after 2 days by MTT assay; type: functional, cell-based; settings: A549, 48 h
# MCF7 = assay: Antiproliferative activity against human MCF7 cells after 2 days by MTT assay; type: functional, cell-based; settings: MCF7, 48 h
# A549 [10] = assay: Cell cycle arrest in human A549 cells assessed as accumulation at sub-G0 phase at 70 nM after 20 hrs by propidium iodide staining based flow cytometry (reference value: 6.6 +/- 0.1%); type: functional
# A549 [11] = assay: Induction of apoptosis in human A549 cells at 100 nM after 24 hrs by Annexin V-FITC/propidium iodide staining based flow cytometry (reference value: 28%); type: functional
# HMEC-1 [12] = assay: Antiproliferative activity against HMEC1 cells after 2 days by MTT assay; type: functional, cell-based; settings: Homo sapiens, HMEC-1, 48 h
# [13] = Selectivity index, ratio of IC50 for antiproliferative activity against HEK293 cells to IC50 for antiproliferative activity against human HT-29 cells; type: toxicity, cell-based; settings: HEK293 cells versus HT-29 cells, read-out: Ratio IC50
# A549 [14] = assay: Cell cycle arrest in human A549 cells assessed as accumulation at G0/G1 phase at 80 nM after 20 hrs by propidium iodide staining based flow cytometry (reference value: 66 +/- 1%); type: functional
# A549 [15] = assay: Cell cycle arrest in human A549 cells assessed as accumulation at sub-G0 phase at 80 nM after 20 hrs by propidium iodide staining based flow cytometry (reference value: 6.6 +/- 0.1%); type: functional
# [16] = Selectivity index, ratio of IC50 for antiproliferative activity against HEK293 cells to IC50 for antiproliferative activity against human HL60 cells; type: toxicity, cell-based; settings: HEK293 cells versus HL60 cells, read-out: Ratio IC50
# [17] = Selectivity index, ratio of IC50 for antiproliferative activity against HEK293 cells to IC50 for antiproliferative activity against human HeLa cells; type: toxicity, cell-based; settings: HEK293 cells versus HeLa cells, read-out: Ratio IC50
# A549 [18] = assay: Cell cycle arrest in human A549 cells assessed as accumulation at G2/M phase at 80 nM after 20 hrs by propidium iodide staining based flow cytometry (reference value: 11 +/- 1%); type: functional
# A549 [19] = assay: Cell cycle arrest in human A549 cells assessed as accumulation at S phase at 80 nM after 20 hrs by propidium iodide staining based flow cytometry (reference value: 16 +/- 1%); type: functional
# [20] = Selectivity index, ratio of IC50 for antiproliferative activity against HEK293 cells to IC50 for antiproliferative activity against human MCF7 cells; type: toxicity, cell-based; settings: HEK293 cells versus MCF7 cells, read-out: Ratio IC50
# A549 [21] = assay: Cell cycle arrest in human A549 cells assessed as accumulation at S phase at 50 nM after 20 hrs by propidium iodide staining based flow cytometry (reference value: 16 +/- 1%); type: functional
# A549 [22] = assay: Cell cycle arrest in human A549 cells assessed as accumulation at G0/G1 phase at 50 nM after 20 hrs by propidium iodide staining based flow cytometry (reference value: 66 +/- 1%); type: functional
# A549 [23] = assay: Cell cycle arrest in human A549 cells assessed as accumulation at sub-G0 phase at 50 nM after 20 hrs by propidium iodide staining based flow cytometry (reference value: 6.6 +/- 0.1%); type: functional
# A549 [24] = assay: Cell cycle arrest in human A549 cells assessed as accumulation at G2/M phase at 50 nM after 20 hrs by propidium iodide staining based flow cytometry (reference value: 11 +/- 1%); type: functional
# Bos taurus [25] = species on record: Bos taurus; assay: Inhibition of calf brain tubulin polymerization in glycerol-assembly buffer assessed as critical concentration for tubulin assembly at 27.5 uM measured every 30 secs for 2 hrs in presence of GTP
# A549 [26] = assay: Cell cycle arrest in human A549 cells assessed as accumulation at G0/G1 phase at 75 nM after 20 hrs by propidium iodide staining based flow cytometry (reference value: 66 +/- 1%); type: functional
# A549 [27] = assay: Cell cycle arrest in human A549 cells assessed as accumulation at S phase at 75 nM after 20 hrs by propidium iodide staining based flow cytometry (reference value: 16 +/- 1%); type: functional
# A549 [28] = assay: Cell cycle arrest in human A549 cells assessed as accumulation at sub-G0 phase at 75 nM after 20 hrs by propidium iodide staining based flow cytometry (reference value: 6.6 +/- 0.1%); type: functional
# A549 [29] = assay: Cell cycle arrest in human A549 cells assessed as accumulation at G2/M phase at 75 nM after 20 hrs by propidium iodide staining based flow cytometry (reference value: 11 +/- 1%); type: functional
# A549 [30] = assay: Cell cycle arrest in human A549 cells assessed as accumulation at G2/M phase at 65 nM after 20 hrs by propidium iodide staining based flow cytometry (reference value: 11 +/- 1%); type: functional
# A549 [31] = assay: Cell cycle arrest in human A549 cells assessed as accumulation at sub-G0 phase at 65 nM after 20 hrs by propidium iodide staining based flow cytometry (reference value: 6.6 +/- 0.1%); type: functional
# A549 [32] = assay: Disruption of microtubule network in human A549 cells assessed as appearance of tubulin aggregates at 260 nM after 16 hrs by Hoechst staining based immunofluorescence assay; type: cell-based
# A549 [33] = assay: Cell cycle arrest in human A549 cells assessed as accumulation at S phase at 65 nM after 20 hrs by propidium iodide staining based flow cytometry (reference value: 16 +/- 1%); type: functional
# A549 [34] = assay: Disruption of microtubule network in human A549 cells assessed as appearance of compressed and fragmented nuclei at 260 nM after 16 hrs by Hoechst staining based immunofluorescence assay; type: cell-based
# A549 [35] = assay: Cell cycle arrest in human A549 cells assessed as accumulation at G0/G1 phase at 65 nM after 20 hrs by propidium iodide staining based flow cytometry (reference value: 66 +/- 1%); type: functional
SMILES,inhibition (MDA-MB-231 [1]),IC50 (HEK293) [µM],Activity (A549 [2]),IC50 (MDA-MB-231 [3]) [µM],Activity (A549 [4]) [%],IC50 (HeLa) [µM],Activity (HMEC-1 [5]),IC50 (HT-29) [µM],inhibition (Bos taurus [8]),IC50 (HL-60) [µM],IC50 (A549 [9]) [µM],IC50 (MCF7) [µM],Activity (A549 [11]) [%],IC50 (HMEC-1 [12]) [µM],selectivity ratio [13],selectivity ratio [16],selectivity ratio [17],selectivity ratio [20],further results
COc1ccc(/C=C\c2cc(OC)c(OC)c(OC)c2)cc1NC(=O)Oc1ccc(Cl)c(C)c1,Active,0.0084,Dose-dependent effect,0.004,41,0.0033,Dose-dependent effect,0.0114,Active,0.0004,0.14,0.0081,90,0.007,,,,,Activity (A549 [6]): 36%; Activity (A549 [7]): 22%; Activity (A549 [10]): 18%
COc1ccc(/C=C\c2cc(OC)c(OC)c(OC)c2)cc1NC(=O)Oc1cccc(Br)c1,,0.016,Dose-dependent effect,0.0134,51,0.0026,,0.0113,Active,0.0056,0.16,0.0059,90,0.012,2 to 11,2 to 11,2 to 11,2 to 11,Activity (A549 [14]): 30%; Activity (A549 [15]): 17%; Activity (A549 [18]): 39%; Activity (A549 [19]): 12%
COc1cc2c(c(OC)c1OC)-c1ccc(OC)c(=O)cc1[C@@H](NC(C)=O)CC2,Active,,,,,,,,,,,,,,,,,,
COc1ccc(/C=C\c2cc(OC)c(OC)c(OC)c2)cc1O [COMBRETASTATIN A4],,,,,,2.1,,,Active,4,0.13,,,3.4,,,,,Activity (A549 [21]): 22%; Activity (A549 [22]): 21%; Activity (A549 [23]): 15%; Activity (A549 [24]): 43%; Activity (Bos taurus [25]): 22 µM
COc1ccc(/C=C\c2cc(OC)c(OC)c(OC)c2)cc1NC(=O)Oc1ccc(Br)cc1,Active,0.019,Dose-dependent effect,0.00407,36,0.0012,Dose-dependent effect,0.0035,,0.005,0.15,0.00075,95,0.007,2 to 11,2 to 11,2 to 11,2 to 11,Activity (A549 [26]): 32%; Activity (A549 [27]): 17%; Activity (A549 [28]): 19%; Activity (A549 [29]): 33%
COc1ccc(/C=C\c2cc(OC)c(OC)c(OC)c2)cc1NC(=O)Oc1ccccc1Cl,,0.041,,0.0138,,0.005,,0.0178,,0.0037,0.13,0.0101,,0.05,2 to 11,2 to 11,2 to 11,2 to 11,Activity (A549 [30]): 43%; Activity (A549 [31]): 16%; Activity (A549 [32]): Active; Activity (A549 [33]): 12%; Activity (A549 [34]): Active; Activity (A549 [35]): 29%
